Test results reported in patent publication US10501453B2, “Benzothiazole or benzoxazole compounds as SUMO activators” (Icahn School of Medicine at Mount Sinai, priority 2012, dated 2019).
≈ marks a conversion by molar mass, not a printed value. Where two headings read alike, the source gives them in different places.

Key:
YFP-SUMO1 = YFP-SUMO1 accumulation (cell image) in HEK-293 cells expressing YFP-SUMO1 and pcDNA3.0-SERCA2a; type: cell-based; conditions: increase vs. DMSO; for fold induction at 10 µM: Homo sapiens, HEK293, 24 hours; for YFP accumulation: 10 μM, 24 hours
Excerpt: (§1) The following antibodies were used for immunoblotting and immunoprecipitation (IP): polyclonal anti-SERCA2a (21th century Biochem Inc.), monoclonal anti-GAPDH (Sigma-Aldrich, catalog no. G8795), monoclonal anti-SUMO 1 (Cell Signaling Technology Inc., catalog no. 4930), anti-mouse horseradish peroxidase (HRP) (Pierce Biotechnology Inc., catalog no. 32430), and anti-rabbit HRP (Pierce Biotechnology Inc., catalog no. 32460). YFP-tagged SUMO1, pcDNA3.0-SERCA2a, and HA-tagged Ubc9 plasmids were used for the transfection. The plasmid DNA was amplified in the Escherichia coli strain DH5a and extracted by using a commercial purification kit (Qiagen, catalog no. 12263). Purified plasmid was resuspended in sterile TE buffer (10 mM Tris-HCl and 1 mM EDTA, pH 7.6). Only the preparation highest purity (A260/A280>1.8) was used for transfection. 1 μg of each plasmid was used for transfection. HEK-293 cells (American Type Culture Collection, catalog no. CRL-1873) were grown at 37° C. and under a 5% CO2 humidified atmosphere in Dulbecco's modified Eagle's medium (DMEM, Cellgro, catalog no. 10-0 13-CM) containing 10% fetal bovine serum (SAFC Bioscience, catalog no. 12107) and 100 i.u of penicillin/ml and 100 μg of streptomycin/ml. HEK-293 cells were seeded at a density of 3-5×10^5 cells per 60 mm culture dish in DMEM. The cells were transiently transfected using Lipofectamine 2000 (Invitrogen, catalog no. 11668) with indicated expression plasmids. After 24 hours, the cells were treated with either small molecules or dimethyl sulfoxide (DMSO, Sigma-Aldrich, catalog no. D2650).
(§2) Each compound was added at 10 μM. DMSO was used as a control. After 24 hours at 37° C., SERCA2a SUMOylation and functional analysis were determined.
Cellular permeability and potential activity of the compounds were examined by tracking of the YFP-SUMO1. HEK-293 cells expressing YFP-SUMOI and pcDNA3.0-SERCA2a were incubated with either 10 μM DMSO or 10 μM small molecules for 24 hours at 37° C. Fluorescent signals were monitored by fluorescence microscopy. HA-tagged Ubc9 expressing cells were served as a positive control.
The ability of the Example compound to SUMOylate SERCA2a was examined using an in vitro system in HEK 293 cells where both SERCA2a and SUMO 1 are expressed. The cellular permeability and potential activity of the Example compounds was examined by tracking of the YFP-SUM01. HEK-293 cells expressing YFP-SUM01 and pcDNA3.0-SERCA2a were treated with either 10 μM DMSO or 10 μM indicated Example 1 for 24 hrs. Fluorescent signals were monitored by fluorescence microscopy. HA-Ubc9 expressing cells were served as a positive control. The SERCA2a SUMOylation profiling was then analyzed by using the same cells (FIG. 1B, WCL, whole cell lysates; S-SERCA2a, SUMOylated SERCA2a).

SERCA2a = SERCA2a SUMOylation assay in HEK-293 cells (immunoprecipitation/immunoblotting); type: cell-based; conditions: compared with DMSO control; 10 μM
Excerpt: as §1, §2
Equal amounts of protein from either small molecule treated or DMSO treated cells or immunoprecipitates were resolved by 7.5% SDS-PAGE and transferred to nitrocellulose membranes (Bio-Rad, catalog no. 162-0112). The membranes were blocked for 1 hour at room temperature with 5% non-fat milk (Cell Signaling Technology Inc., catalog no. 9999) in TBST (10 mM Tris-HCl, 150 mM NaCl, and 0.05% tween-20, pH 8.0). The blots were incubated with specific primary antibodies at 4° C. for overnight. The blots were then washed five times for 10 minutes each with TBST and incubated for 1 hour with HRP-conjugated secondary antibodies in TBST with 5% non-fat milk. After five times TBST washes, the protein bands were visualized with enhanced chemiluminescence (Pierce Biotechnology Inc., catalog no. 32132) and exposed to x-ray film (Denville Scientific Inc., catalog no. E3012). GAPDH expression provided an internal control.
Post-transfection (48 hours), the HEK-293 cells were rinsed twice with phosphate-buffered saline (PBS, Cellgro, catalog no. 21-040-CM) and lysed in 1% Nonidet P-40 lysis buffer (Boston Bioproducts, catalog no. BP-119) with 10 mM N-ethylmaleimide (NEM, Sigma-Aldrich, catalog no. N3876) and […] inhibitor cocktail (Complete Mini Tablet, Roche Applied Science, catalog no. 11836153001). 2 mg of protein were mixed with the anti-SERCA2a antibodies for overnight at 4° C. in lysis buffer. Pre-washed protein A-Separose beads (Pierce Biotechnology Inc., catalog no. 20333) was added to each sample and incubated 1 hour at 4° C. with gentle rocking. Immunocomplexes were washed with lysis buffer three times and precipitated by centrifugation at 12000×g for 10 seconds. The immunocomplexes were resuspended in SDS sample buffer and subjected to immunoblotting. Controls for the immunoprecipitations were performed using an anti-rabbit IgG equal to that of the primary precipitating antibody. Ten percent of whole cell lysates used in the immunoprecipitation was loaded for subsequent immunoblotting.
The ability of the Example compound to SUMOylate SERCA2a was examined using an in vitro system in HEK 293 cells where both SERCA2a and SUMO 1 are expressed. […]

[1] = test system: adult rat ventricular myocytes (ARVMs); assay: Cell shortening/re-lengthening and calcium transient of ARVMs (IonOptix); type: cell-based; conditions: compared to DMSO control; 10 μM
Experimental: Calcium-tolerant adult rat ventricular myocytes (ARVMs) were obtained from hearts of male Sprague-Dawley rats (250 to 300 g). The heart was excised and perfused with a standard enzymatic technique. ARVMs were plated on multi-chambered plates or culture dishes, pre-coated with laminin 2 μg/cm^2, at a density of 10^5 cells/cm^2 in DMEM without L-glutamine supplemented with 10 mmol/l HEPES, 3.7 mg/ml NaHCO3, 1 mg/ml glucose, 0.11 mg/ml sodium pyruvate, 2 mg/ml bovine serum albumin, 2 mmol/1 L-camitine, 5 mmol/1 creatine, 5 mmol/1 taurine, 1% penicillin-streptomycin, and 1% gentamycin. Following isolation, cells were allowed to settle for 1 hour. Cultures were incubated at 37° C., in an atmosphere of 5% CO2-95% air. Fresh medium was added gently as medium was being drawn off until the cultures had been thoroughly washed. Only quiescent, rod-shape cardiac myocytes were selected for IonOptix experiments.
as §2
Mechanical properties of ARVMs were assessed using an IonOptix MyoCam® system (IonOptix, Milton, Mass.). In brief, cells were placed in a Warner chamber mounted on the stage of an inverted microscope (Olympus, IX-70) and superfused (1 ml/min at 30° C.) with a buffer containing 131 mM NaCl, 4 mM KCl, 1 mM CaCh, 1 mM MgCh, 10 mM glucose, and 10 mM HEPES, pH 7.4. ARVMs were field stimulated with suprathreshold voltage and at a frequency of 0.5 Hz. […] SoftEdge software (IonOptix) was used to capture changes in cell length during shortening and re-lengthening.
ARVMs were placed in a chamber on an Olympus IX-70 inverted microscope and imaged through a Fluor 40× oil objective. ARVMs were exposed to light emitted by a 75 W lamp and passed through either a 360 or a 380 nm filter (bandwidths were ±15 nm), while being stimulated to contract at 0.5 Hz. Fluorescence emissions were detected between 480 and 520 nm by a photomultiplier tube after first illuminating cells at 360 nm for 0.5 s then at 380 nm for the duration of the recording protocol (333 Hz sampling rate). The 360 nm excitation scan was repeated at the end of the protocol and qualitative changes in intracellular Ca^2+ concentration ((Ca^2+]i) were inferred from the ratio of the fluorescence intensity at two wavelengths.
The effects of the Example compound was examined on isolated rat cardiomyocytes shortening and relaxation parameters. […] Effects of Example 1 on mechanical properties of the ARVMs were assessed using a video-based edge detection system (IonOptix). The time constant of the increase of force during the stretch decreased (tau), percentage of peak shortening (PS), maximal rate of relaxation and contraction were analyzed at 24 hrs postincubation of the compounds in culture media (N=10 ARVMs). The mechanical data were analyzed with student's t-test (FIG. 2A, P<0.05 compared to the DMSO treated cells). SERCA2a SUMOylation profiling was analyzed in a same set of ARVMs (FIG. 2B, WCL, whole cell lysates; S-SERCA2a, SUMOylated SERCA2a).

Solubility (Table 2) = conditions: DMSO, organic solvent or mixture
HEK-293 cells [2] = assay: Toxicity (Table 2; cytotoxicity in the compound screen)
HEK-293 cells [3] = test system: HEK-293 cells

| Molecule | solubility (Solubility (Table 2)) | fold induction at 10 µM (YFP-SUMO1) | SERCA2a SUMOylation (SERCA2a) | Cardiac Contraction: Peak shortening [1] | Toxicity (HEK-293 cells [2]) | YFP accumulation (YFP-SUMO1) | Toxicity (HEK-293 cells [3]) |
| --- | --- | --- | --- | --- | --- | --- | --- |
| Fc1ccc(-c2nnc(Nc3nc4c(F)cccc4s3)o2)cc1 [Example 2, N-(4-fluorobenzo[d]thiazol-2-yl)-5-(4-fluorophenyl)-1,3,4-oxadiazol-2-amine] | 10 mM (≈ 3300 µg/mL) | 2.93 | Increased 1.34x compared with DMSO control | Peak shortening 2.2x compared to DMSO control | Non-toxic | – | – |
| N-(6-fluorobenzo[d]thiazol-2-yl)-5-(4-methoxyphenyl)-1,3,4-oxadiazol-2-amine [Example 14] | – | – | Not statistically significant | – | – | Active | > 50% |

Now from value to molecule, other results behind:

| solubility (Solubility (Table 2)) | Molecule | fold induction at 10 µM (YFP-SUMO1) | SERCA2a SUMOylation (SERCA2a) | Cardiac Contraction: Peak shortening [1] | Toxicity (HEK-293 cells [2]) | YFP accumulation (YFP-SUMO1) | Toxicity (HEK-293 cells [3]) |
| --- | --- | --- | --- | --- | --- | --- | --- |
| 10 mM (≈ 3420 µg/mL) | COc1cccc(-c2nnc(Nc3nc4c(F)cccc4s3)o2)c1 [Example 3, N-(4-fluorobenzo[d]thiazol-2-yl)-5-(3-methoxyphenyl)-1,3,4-oxadiazol-2-amine] | 2.49 | Increased 1.43x compared with DMSO control | Peak shortening 2.5x compared to DMSO control | Non-toxic | – | – |
| 10 mM (≈ 3420 µg/mL) | COc1ccc(-c2nnc(Nc3nc4c(F)cccc4s3)o2)cc1 [Example 4, N-(4-fluorobenzo[d]thiazol-2-yl)-5-(4-methoxyphenyl)-1,3,4-oxadiazol-2-amine] | 2.34 | Increased 1.4x compared with DMSO control | Peak shortening 4.3x compared to DMSO control | Non-toxic | – | – |
| < 2.5 mM | COc1ccc(-c2nnc(Nc3nc4ccc(SC)cc4s3)o2)cc1 [Example 18, 5-(4-methoxyphenyl)-N-(6-(methylthio)benzo[d]thiazol-2-yl)-1,3,4-oxadiazol-2-amine] | – | Not statistically significant | – | > 50% | Active | – |
